Assay results reported in ChEMBL document CHEMBL1201862, “PubChem BioAssay data set” (2004).
Activity calls are given as the source filed them.

Experiments:
Protein skinhead-1 = target: T1, Protein skinhead-1 (Caenorhabditis elegans, UniProt P34707); format: functional
T1 sequence (P34707 whole entry): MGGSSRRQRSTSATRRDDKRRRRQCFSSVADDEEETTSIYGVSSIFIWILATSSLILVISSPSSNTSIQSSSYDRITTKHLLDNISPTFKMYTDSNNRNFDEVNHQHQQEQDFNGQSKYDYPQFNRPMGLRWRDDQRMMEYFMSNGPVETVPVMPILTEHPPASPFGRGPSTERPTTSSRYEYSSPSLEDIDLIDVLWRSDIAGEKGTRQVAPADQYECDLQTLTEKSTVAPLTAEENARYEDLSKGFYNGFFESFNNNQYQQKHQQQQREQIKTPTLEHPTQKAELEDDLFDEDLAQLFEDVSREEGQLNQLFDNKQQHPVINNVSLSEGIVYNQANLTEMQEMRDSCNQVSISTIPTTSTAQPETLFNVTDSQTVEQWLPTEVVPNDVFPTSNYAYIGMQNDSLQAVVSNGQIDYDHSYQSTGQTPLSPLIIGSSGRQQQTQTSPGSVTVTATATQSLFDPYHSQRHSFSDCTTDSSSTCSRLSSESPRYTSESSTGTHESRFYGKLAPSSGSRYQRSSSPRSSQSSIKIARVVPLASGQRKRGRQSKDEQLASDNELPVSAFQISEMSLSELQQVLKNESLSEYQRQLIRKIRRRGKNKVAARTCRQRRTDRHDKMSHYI

Protein RecA = target: T2, Protein RecA (Mycobacterium tuberculosis, UniProt P9WHJ3); assay: Fluorescence Cell-Free Homogeneous Dose Retest to Identify Inhibitors of RecA-Intein Splicing Activity. [Related pubchem assays (depositor defined):AID2097, AID2223, AID489010, AID492950]; format: functional
T2 sequence (P9WHJ3 whole entry): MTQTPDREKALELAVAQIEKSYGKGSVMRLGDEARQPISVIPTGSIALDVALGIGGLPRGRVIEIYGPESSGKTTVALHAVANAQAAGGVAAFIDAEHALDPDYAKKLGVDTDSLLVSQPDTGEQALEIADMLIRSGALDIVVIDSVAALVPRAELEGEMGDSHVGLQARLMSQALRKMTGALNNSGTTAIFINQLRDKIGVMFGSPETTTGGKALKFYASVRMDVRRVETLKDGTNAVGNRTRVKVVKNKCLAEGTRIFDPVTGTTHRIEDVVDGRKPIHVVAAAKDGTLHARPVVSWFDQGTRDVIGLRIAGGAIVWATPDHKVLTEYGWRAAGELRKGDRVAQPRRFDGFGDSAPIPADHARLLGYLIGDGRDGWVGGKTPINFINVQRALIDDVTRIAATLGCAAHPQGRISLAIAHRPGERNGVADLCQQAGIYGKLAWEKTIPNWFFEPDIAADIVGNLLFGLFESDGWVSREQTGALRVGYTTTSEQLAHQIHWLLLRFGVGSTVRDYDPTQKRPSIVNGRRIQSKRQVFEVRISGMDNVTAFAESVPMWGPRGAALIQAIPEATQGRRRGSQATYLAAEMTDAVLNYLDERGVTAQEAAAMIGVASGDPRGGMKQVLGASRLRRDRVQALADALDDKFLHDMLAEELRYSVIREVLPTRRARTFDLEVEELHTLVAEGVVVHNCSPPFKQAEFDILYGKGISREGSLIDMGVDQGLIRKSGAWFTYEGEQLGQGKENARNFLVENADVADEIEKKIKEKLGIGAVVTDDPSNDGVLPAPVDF

[1] = target: T3, Replicative DNA helicase DnaB (Mycobacterium tuberculosis, UniProt P9WMR3); assay: DnaB intein splicing inhibitors, dose response, biochemical, cell-free fluorescence (AID 449749); format: functional
T3 sequence (P9WMR3 whole entry): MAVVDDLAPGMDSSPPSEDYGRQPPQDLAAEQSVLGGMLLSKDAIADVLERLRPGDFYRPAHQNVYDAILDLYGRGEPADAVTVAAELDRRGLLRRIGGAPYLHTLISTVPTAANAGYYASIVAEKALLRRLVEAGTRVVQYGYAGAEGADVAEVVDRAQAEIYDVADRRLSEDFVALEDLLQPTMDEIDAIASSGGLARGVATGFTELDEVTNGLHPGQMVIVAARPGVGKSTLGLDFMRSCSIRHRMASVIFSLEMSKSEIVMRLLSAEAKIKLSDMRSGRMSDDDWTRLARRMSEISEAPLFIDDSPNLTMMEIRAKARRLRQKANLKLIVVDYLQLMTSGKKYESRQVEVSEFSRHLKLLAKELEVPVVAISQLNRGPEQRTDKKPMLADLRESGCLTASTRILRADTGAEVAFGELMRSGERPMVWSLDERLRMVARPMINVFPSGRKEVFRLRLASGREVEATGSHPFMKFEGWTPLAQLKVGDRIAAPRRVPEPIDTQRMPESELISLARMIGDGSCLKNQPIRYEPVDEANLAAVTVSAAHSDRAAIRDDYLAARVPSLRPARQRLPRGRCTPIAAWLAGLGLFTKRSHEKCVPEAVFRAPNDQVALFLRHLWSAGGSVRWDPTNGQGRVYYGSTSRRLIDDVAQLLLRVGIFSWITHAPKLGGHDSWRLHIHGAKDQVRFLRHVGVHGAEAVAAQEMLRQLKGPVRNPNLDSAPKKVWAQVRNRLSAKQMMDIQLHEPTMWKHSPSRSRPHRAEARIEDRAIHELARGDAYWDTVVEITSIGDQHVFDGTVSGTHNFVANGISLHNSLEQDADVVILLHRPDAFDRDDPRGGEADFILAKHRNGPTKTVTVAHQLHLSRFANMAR

cells = format: functional
[2] = target: T4, Rac GTPase-activating protein 1 (Homo sapiens, UniProt Q9H0H5); assay: blockers of MgcRacGAP-driven Rac1 GTP hydrolysis – biochemical, ADP Hunter fluorescence, primary and confirmatory, confirmation (AID 624330); format: functional
T4 sequence (Q9H0H5 whole entry): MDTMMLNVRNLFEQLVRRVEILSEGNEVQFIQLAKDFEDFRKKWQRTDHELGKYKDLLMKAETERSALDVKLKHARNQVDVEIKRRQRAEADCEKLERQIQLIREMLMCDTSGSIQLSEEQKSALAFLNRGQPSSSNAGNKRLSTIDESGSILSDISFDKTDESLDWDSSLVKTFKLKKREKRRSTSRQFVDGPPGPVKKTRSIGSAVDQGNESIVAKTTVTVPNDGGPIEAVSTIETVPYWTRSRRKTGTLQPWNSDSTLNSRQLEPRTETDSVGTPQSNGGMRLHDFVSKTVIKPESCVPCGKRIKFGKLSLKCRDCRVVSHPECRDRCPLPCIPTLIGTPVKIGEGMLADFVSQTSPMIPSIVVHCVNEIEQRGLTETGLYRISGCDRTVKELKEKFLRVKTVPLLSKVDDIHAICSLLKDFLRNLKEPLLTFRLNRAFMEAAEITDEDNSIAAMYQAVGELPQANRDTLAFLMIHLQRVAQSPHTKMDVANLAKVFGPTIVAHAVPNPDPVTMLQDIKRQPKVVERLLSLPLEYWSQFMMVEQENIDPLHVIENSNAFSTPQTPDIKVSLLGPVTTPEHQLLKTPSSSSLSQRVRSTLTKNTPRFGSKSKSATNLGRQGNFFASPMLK

[3] = Luminescence Cell-Based Dose Retest to Confirm Inhibitors of Cancer Stem Cells. [Related pubchem assays (depositor defined):AID2717, AID2721]; format: functional; conditions: Homo sapiens
[4] = Luminescence Cell-Based Dose Response HTS to Identify Activators of Luciferase Translation or Activity in H4 […] Cells. [Related pubchem assays: 1829 (Project Summary), 1814 (Primary HTS)]; format: functional
H4 = assay: Luminescence Cell-Based Dose Response HTS to Identify Activators of 5'UTR Stem-Loop Driven Prion Protein mRNA Translation in H4 Neuroglioblastoma Cells. [Related pubchem assays: 1829 (Project Summary), 1814 (Primary HTS)]; format: functional; conditions: Homo sapiens
[5] = Luminescence Cell-Based Dose Confirmation HTS to Identify Activators of 5'UTR Stem-Loop Driven Alpha-Synuclein mRNA Translation in H4 Neuroglioblastoma Cells. [Related pubchem assays: 1829 (Project Summary), 1814 (Primary HTS)]; format: functional
[6] = target: T5, RNA-binding protein pos-1 (Caenorhabditis elegans, UniProt G5EF15); assay: disruptors of C. elegans POS-1 RNA interaction – biochemical, fluorescence polarization, dose response (AID 1964);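 also: purified POS-1 fused to maltose binding protein made in E. coli; potency of compounds blocking POS-1 binding to fluorescent RNA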
T5 sequence (G5EF15 whole entry): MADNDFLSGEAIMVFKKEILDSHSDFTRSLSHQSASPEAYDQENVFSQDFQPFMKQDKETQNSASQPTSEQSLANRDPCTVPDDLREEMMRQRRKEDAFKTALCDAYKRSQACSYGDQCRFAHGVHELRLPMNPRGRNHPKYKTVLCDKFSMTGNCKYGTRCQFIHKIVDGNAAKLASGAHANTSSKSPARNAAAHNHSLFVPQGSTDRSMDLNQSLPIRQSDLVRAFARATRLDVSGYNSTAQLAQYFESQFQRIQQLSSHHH

[7] = target: T6, Zinc finger protein mex-5 (Caenorhabditis elegans, UniProt Q9XUB2); assay: potency of MEX-5 RNA-binding blockers – biochemical, C. elegans, fluorescence polarization, dose response (AID 1960)
T6 sequence (Q9XUB2 whole entry): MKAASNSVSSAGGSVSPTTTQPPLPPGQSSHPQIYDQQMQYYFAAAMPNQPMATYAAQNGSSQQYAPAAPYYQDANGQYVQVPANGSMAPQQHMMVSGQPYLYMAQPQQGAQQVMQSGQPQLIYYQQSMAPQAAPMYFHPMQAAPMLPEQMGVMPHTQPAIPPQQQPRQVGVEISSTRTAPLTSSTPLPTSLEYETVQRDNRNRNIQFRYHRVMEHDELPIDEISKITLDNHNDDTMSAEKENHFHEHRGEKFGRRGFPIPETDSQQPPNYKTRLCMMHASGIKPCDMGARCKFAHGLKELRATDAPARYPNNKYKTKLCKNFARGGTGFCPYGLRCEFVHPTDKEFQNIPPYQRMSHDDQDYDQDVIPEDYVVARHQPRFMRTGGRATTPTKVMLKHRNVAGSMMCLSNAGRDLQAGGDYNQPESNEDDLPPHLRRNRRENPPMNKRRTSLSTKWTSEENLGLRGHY

[8] = luciferase reporter signal suppression in cells – H4 neuroglioma cells, luminescence, dose response (AID 1990); format: functional, cell-based
[9] = Luminescence Cell-Based Dose Response HTS to Identify Inhibitors of 5'UTR Stem-Loop Driven Prion Protein mRNA Translation in H4 Neuroglioblastoma Cells. [Related pubchem assays: 1827 (Project Summary), 1813 (Primary HTS)]; format: functional
[10] = alpha-synuclein stem-loop luciferase translation blockers – H4 neuroglioma cells, luminescence, confirmation (AID 1988); format: functional, cell-based
INS1 = assay: INS-1E survival protection against cytokine death – cell-based, luminescence, retest, dose response (AID 449756); format: functional; conditions: Rattus norvegicus;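 also: cell death triggered by IL-1 beta plus TNF-alpha plus IFN-gamma mixture; protective hits raise ATP signal compared with cytokine alone wells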

| Structure (SMILES) | IC50 (Protein skinhead-1) | EC50 (Protein RecA) | AC50 [1] | other results |
| --- | --- | --- | --- | --- |
| CC(=O)Nc1ccc(NC(=O)C2Cc3c(-c4cccc(F)c4)ccnc3O2)cc1 (configuration not stated) | > 100 µM (inactive) | – | – | – |
| COC1(OC)C(/C=C/c2ccc(C)cc2)C(C#N)(C#N)C1(OC)OC (configuration not stated) | – | > 380 µM (inactive) | > 380 µM (inactive) | – |
| O=C(N/N=C/c1ccc(O)cc1)c1cccc(C(F)(F)F)c1 | – | – | – | IC50 (cells): 38.6 µM (active); IC50 [2]: 83.9 µM (active) |
| O=C1c2ccccc2-c2nnc(-c3ccc(O)cc3)cc21 | – | 1.13 µM (active) | 15.4 µM (active) | – |
| Cc1cc(C(=O)CSc2nnc(-c3cccs3)n2Cc2ccccc2)c(C)n1C | > 100 µM (inactive) | – | – | – |
| CC1OC(c2ccccc2)OC2COC(c3ccccc3)OC12 (configuration not stated) | > 100 µM (inactive) | – | – | – |
| Cc1cc(C)c(NC(=O)C[S+]([O-])CC(=O)Nc2ccc(N3CCOCC3)cc2)c(C)c1 (configuration not stated) | > 100 µM (inactive) | – | – | – |
| CS(=O)(=O)c1ccc(C(=O)OCC(=O)NC23CC4CC(CC(C4)C2)C3)cc1[N+](=O)[O-] | – | 1.32 µM (active) | 1.18 µM (active) | AC50 [3]: 2.4 µM (active) |
| C(=C\c1ccc2ccccc2n1)/c1ccccc1 | 24.8 µM (active) | – | – | – |
| O=C(/C=C/c1ccco1)N1CCc2ccccc21 | 48.6 µM (active) | – | – | – |
| CCO/C(O)=C1\C(C)=NC(SCc2cc(O)[nH]n2)=C(C#N)C1c1cccs1 (configuration not stated) | – | 4.99 µM (active) | 6.16 µM (active) | – |
| Cn1c(SCC(=O)NCC2CCCO2)ncc(C(=O)Nc2ccc(Cl)cc2)c1=O (configuration not stated) | – | 1.13 µM (active) | > 380 µM (inactive) | – |
| CCOc1ccc2c(=O)c(Oc3ccccc3OCC)coc2c1 | > 100 µM (inactive) | – | – | EC50 [4]: 7.99 µM (active); EC50 (H4): 19.3 µM (active); EC50 [5]: 7.35 µM (active) |
| C(#Cc1ccc2c(c1)COc1c3ccccc3nn1-2)c1ccccc1 | > 100 µM (inactive) | – | – | EC50 [6]: > 300 µM (not active); EC50 [7]: 169 µM (active) |
| Cc1cccc(C)c1OCC(O)CN(Cc1ccccc1O)C1CCCCC1 (configuration not stated) | > 100 µM (inactive) | – | – | EC50 [8]: > 120 µM (not active); EC50 [9]: > 120 µM (not active); EC50 [10]: > 120 µM (not active) |
| CN(CCC#N)C(=O)Cn1nc(Cc2ccncc2)c2ccccc2c1=O | – | > 380 µM (inactive) | > 380 µM (inactive) | – |
| Cc1cccc(CSC(Nc2ccc(F)cc2)=C(C#N)C#N)c1 | – | 10.9 µM (active) | 7.03 µM (active) | AC50 (INS1): 4.83 µM (active) |
| Cc1ccc2[nH]c3c(c2c1)CN(C(=O)CN1CCSCC1)CC3 | – | 0.132 µM (active) | > 380 µM (inconclusive) | – |
| CCCCOC(=O)Nc1ccc(C(C)C)cc1 | 42.4 µM (active) | – | – | – |
| N#C/C(=C/c1cccn1-c1cccc(C(=O)O)c1)c1ccc(F)cc1 | – | > 380 µM (inconclusive) | 14.1 µM (active) | EC50 [6]: > 300 µM (not active); EC50 [7]: > 300 µM (not active) |
